Data on one compound can be found in ChEMBL document CHEMBL3526031, “Mechanistic studies on the absorption and disposition of scutellarin in humans: selective OATP2B1-mediated hepatic uptake is a likely key determinant for its unique pharmacokinetic characteristics” (Drug Metab Dispos, 2012).

Each structure is given as a SMILES string.

The data set deals with T1, UDP-glucuronosyltransferase 1A10 (Homo sapiens, UniProt Q9HAW8).
T1 sequence (Q9HAW8 whole entry): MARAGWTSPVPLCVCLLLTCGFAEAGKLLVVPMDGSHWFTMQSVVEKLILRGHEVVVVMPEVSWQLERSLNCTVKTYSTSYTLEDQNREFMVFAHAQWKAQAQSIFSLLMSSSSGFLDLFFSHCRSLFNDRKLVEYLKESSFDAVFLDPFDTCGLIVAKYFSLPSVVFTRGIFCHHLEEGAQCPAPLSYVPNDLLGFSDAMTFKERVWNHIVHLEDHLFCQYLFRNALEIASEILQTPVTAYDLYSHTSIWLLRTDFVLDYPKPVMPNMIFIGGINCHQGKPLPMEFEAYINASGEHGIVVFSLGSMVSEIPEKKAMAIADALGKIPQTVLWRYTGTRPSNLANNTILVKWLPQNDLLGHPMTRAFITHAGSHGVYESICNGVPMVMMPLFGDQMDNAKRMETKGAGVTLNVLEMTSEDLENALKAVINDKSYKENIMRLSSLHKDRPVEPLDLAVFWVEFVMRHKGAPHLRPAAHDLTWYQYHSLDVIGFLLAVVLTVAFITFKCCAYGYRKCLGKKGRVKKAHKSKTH
Nature of the data set: Ratio of Vmax to Km for drug metabolism assessed as human recombinant UGT1A10-mediated formation of scutellarein-6,7-diglucuronide after 25 mins by HPLC/UV analysis. The format is ADME. The conditions noted are these: recombinant enzyme.

For `O=C(O)[C@H]1O[C@@H](Oc2c(O)cc3oc(-c4ccc(O)cc4)cc(=O)c3c2O)[C@H](O)[C@@H](O)[C@@H]1O`, the Vmax/Km is 2.84 µL/min/mg.
